Consider 1 molecule from patent US7915291B2, “Hepatitis C virus inhibitors” (Bristol-Myers Squibb Company, priority 2002, dated 2011).

In experiment [1] the target is T1, human pancreatic chymotrypsin (Homo sapiens, UniProt P17538).
T1 construct: purchased Sigma
Kind of experiment: Specificity assay, chymotrypsin. It is filed as biochemical. The settings on record: 2 hr pre-incubation. How it is done:
The specificities of compounds of the present invention were determined against a variety of serine proteases: human leukocyte elastase (HLE), porcine pancreatic elastase (PPE) and human pancreatic chymotrypsin and one cysteine protease: human liver cathepsin B. In all cases a 96-well plate format protocol using colorimetric p -nitroaniline (pNA) substrate specific for each enzyme was used as described previously (Patent WO 00/09543) with some modifications to the serine protease assays. All enzymes were purchased from Sigma while the substrates were from Bachem.
Each assay included a 2 hr enzyme-inhibitor pre-incubation at RT followed by addition of substrate and hydrolysis to ˜30% conversion as measured on a Spectramax Pro microplate reader. Compound concentrations varied from 100 to 0.4 μM depending on their potency. […]
The percentage of inhibition was calculated using the formula: [1−((UVinh−UVblank)/(UVctl−UVblank))]×100 […]

For experiment [2], the target named is HCV NS3/4A protease complex, BMS strain (UniProt P27958, C1454S/C1711G, species not given/STRAIN_BMS). Kind of experiment: Recombinant HCV NS3/4A protease complex FRET peptide assay (BMS strain). It is filed as biochemical, HCV genotype 1a. In a few lines: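 Recombinant BMS-strain NS3/4A (His-tagged NS4A with three-lysine tail, E. coli) at 2-3 nM preincubated 1 min with compound, then 2 μM ester-linked NS4A/NS4B-based FRET peptide added. Fluorescence followed in real time ~15 min at 25° C. Percent inhibition from slope of linear fluorescence change versus no-compound control.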

Where two headings read alike, the source gives them in different places.

T1 sequence (P17538 19-263): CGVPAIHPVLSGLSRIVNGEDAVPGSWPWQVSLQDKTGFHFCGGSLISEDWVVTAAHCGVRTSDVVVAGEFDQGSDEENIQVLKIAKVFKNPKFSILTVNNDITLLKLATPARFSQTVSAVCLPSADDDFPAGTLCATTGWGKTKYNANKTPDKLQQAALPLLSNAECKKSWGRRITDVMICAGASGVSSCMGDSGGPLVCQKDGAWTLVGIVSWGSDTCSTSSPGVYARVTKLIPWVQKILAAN

As to `C=C[C@@H]1C[C@]1(NC(=O)[C@@H]1C[C@@H](Oc2nc(C3CC3)cc3ccccc23)CN1C(=O)[C@@H](NC(=O)OC(C)(C)C)C(C)(C)C)C(=O)NS(=O)(=O)C1CC1` [Compound 34], the IC50 in experiment [1] is above 200000 nM; in experiment [2] (BMS strain, read-out: IC50 against the NS3/4A BMS strain in the enzyme assay), 23 nM; in experiment [2] (NS3/4A BMS strain, read-out: IC50 range) it was below 100 nM.
